Source: ChEMBL document CHEMBL1201862, “PubChem BioAssay data set” (2004)
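Cells were grown in 96-well plates and exposed to each compound for 48 hours at five concentrations; endpoints were interpolated linearly between bracketing concentrations, or set to the highest concentration if not reached. Abbreviation: GI50, concentration required for 50% inhibition of growth.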 The source made the active and inactive calls. Cut-off read from the data, not from the text of the source: active = GI50 up to about 1.1 µM and inactive = higher. Where a SMILES comes first, the peptide text is derived from it. [ ]: non-standard residue; d: D form. The star is where a group is joined. ξ: configuration not given here. ξF = NC(Cc1ccccc1)C(=O)O; Cbz = O=C(OCc1ccccc1)*; Aib = CC(C)(N)C(=O)O

How the values were obtained:
Experiment in all cases: inhibition of tumour cell growth, NCI panel, 48 h
CAKI-1 = system: CAKI-1
CCRF-CEM = system: CCRF-CEM
HL-60 = system: HL-60
IGROV-1 = system: IGROV-1
K562 = system: K562
NCI-H23 = system: NCI-H23
NCI-H460 = system: NCI-H460
OVCAR-4 = system: OVCAR-4
OVCAR-5 = system: OVCAR-5
OVCAR-8 = system: OVCAR-8
RPMI-8226 = system: RPMI-8226
SF-268 = system: SF-268
SF-295 = system: SF-295
SK-MEL-5 = system: SK-MEL-5
SN12C = system: SN12C
SW-620 = system: SW-620
UACC-62 = system: UACC-62
UO-31 = system: UO-31
HCC 2998 = system: HCC 2998
NCI-H522 = system: NCI-H522

Row | SMILES | GI50 (CAKI-1) | GI50 (CCRF-CEM) | GI50 (HL-60) | GI50 (IGROV-1) | GI50 (K562) | GI50 (NCI-H23) | GI50 (NCI-H460) | GI50 (OVCAR-4) | GI50 (OVCAR-5) | GI50 (OVCAR-8) | GI50 (RPMI-8226) | GI50 (SF-268) | GI50 (SF-295) | GI50 (SK-MEL-5) | GI50 (SN12C) | GI50 (SW-620) | GI50 (UACC-62) | GI50 (UO-31) | GI50 (HCC 2998) | GI50 (NCI-H522)
1 | Nc1nc(=S)[nH]c2nc3c(c(-c4ccccc4)c12)CCCC3 | > 100 µM (inactive) | > 10 µM (inactive) | > 100 µM (inactive) | > 100 µM (inactive) | > 100 µM (inactive) | > 100 µM (inactive) | > 100 µM (inactive) | > 100 µM (inactive) | > 100 µM (inactive) | > 100 µM (inactive) | > 100 µM (inactive) | > 100 µM (inactive) | > 100 µM (inactive) | > 100 µM (inactive) | 67.8 µM (inactive) | > 100 µM (inactive) | > 100 µM (inactive) | > 100 µM (inactive) | – | –
2 | C=CC(Br)(CBr)CCC(Cl)C(C)C (configuration not stated) | 2.62 µM (inactive) | 0.364 µM (active) | 0.561 µM (active) | 2.5 µM (inactive) | 1.33 µM (inactive) | 2.74 µM (inactive) | 1.88 µM (inactive) | 1.49 µM (inactive) | 2.44 µM (inactive) | – | 0.35 µM (active) | 1.56 µM (inactive) | 1.84 µM (inactive) | 1.85 µM (inactive) | 1.73 µM (inactive) | 1.69 µM (inactive) | 1.5 µM (inactive) | 1.64 µM (inactive) | < 0.01 µM (active) | 1.42 µM (inactive)
3 | CCSc1ncnc2c(C3OC(CO)C(O)C3O)nsc12 (configuration not stated) | > 100 µM (inactive) | > 100 µM (inactive) | > 100 µM (inactive) | > 100 µM (inactive) | > 100 µM (inactive) | – | – | > 100 µM (inactive) | > 100 µM (inactive) | > 100 µM (inactive) | – | > 100 µM (inactive) | > 100 µM (inactive) | > 100 µM (inactive) | > 100 µM (inactive) | > 100 µM (inactive) | – | – | 99.1 µM (inactive) | –
4 | COC1CCC(OS(C)(=O)=O)CO1 (configuration not stated) | – | 22.5 µM (inactive) | 35 µM (inactive) | > 100 µM (inactive) | 69 µM (inactive) | > 100 µM (inactive) | > 100 µM (inactive) | > 100 µM (inactive) | 42.2 µM (inactive) | – | 26.2 µM (inactive) | 86.7 µM (inactive) | > 100 µM (inactive) | – | – | – | > 100 µM (inactive) | > 100 µM (inactive) | – | > 100 µM (inactive)
5 | COc1ccccc1C1C(C(=O)O)=C(CO)Oc2cc3c(cc21)OCO3 (configuration not stated) | > 100 µM (inactive) | > 100 µM (inactive) | > 100 µM (inactive) | > 100 µM (inactive) | > 100 µM (inactive) | > 100 µM (inactive) | > 100 µM (inactive) | – | – | > 100 µM (inactive) | > 100 µM (inactive) | > 100 µM (inactive) | > 100 µM (inactive) | > 100 µM (inactive) | > 100 µM (inactive) | > 100 µM (inactive) | > 100 µM (inactive) | > 100 µM (inactive) | – | > 100 µM (inactive)
6 | O=[N+]([O-])c1ccc(Nc2nc3ccccc3s2)cc1 | > 100 µM (inactive) | – | – | 3.94 µM (inactive) | 12.2 µM (inactive) | 16 µM (inactive) | 29.4 µM (inactive) | 43.2 µM (inactive) | 23 µM (inactive) | 40.7 µM (inactive) | – | 26.3 µM (inactive) | 37.6 µM (inactive) | 21.6 µM (inactive) | – | 35 µM (inactive) | 20.2 µM (inactive) | 18.5 µM (inactive) | 25.2 µM (inactive) | 14.4 µM (inactive)
7 | O=C(O)C1Cc2c([nH]c3ccccc23)C=N1 (configuration not stated) | > 100 µM (inactive) | > 100 µM (inactive) | > 100 µM (inactive) | > 100 µM (inactive) | > 100 µM (inactive) | > 100 µM (inactive) | > 100 µM (inactive) | > 100 µM (inactive) | > 100 µM (inactive) | > 100 µM (inactive) | > 100 µM (inactive) | > 100 µM (inactive) | > 100 µM (inactive) | > 100 µM (inactive) | > 100 µM (inactive) | > 100 µM (inactive) | > 100 µM (inactive) | > 100 µM (inactive) | > 100 µM (inactive) | > 100 µM (inactive)
8 | CC1C/C(=C\c2ccc(O)c(O)c2)C(=O)/C(=C/c2ccc(O)c(O)c2)C1 (configuration not stated) | 5.74 µM (inactive) | 3.06 µM (inactive) | 4.93 µM (inactive) | 6 µM (inactive) | 5.83 µM (inactive) | 4.14 µM (inactive) | 12.7 µM (inactive) | 7.16 µM (inactive) | 17.3 µM (inactive) | 9.04 µM (inactive) | – | 6.12 µM (inactive) | 13.7 µM (inactive) | 4.23 µM (inactive) | 5.48 µM (inactive) | 11.6 µM (inactive) | 3.17 µM (inactive) | – | 18.2 µM (inactive) | 1.81 µM (inactive)
9 | CCCOC(=O)CCC(NC(=O)c1ccc(Nc2nc3ccccc3nc2-c2cccs2)cc1)C(=O)OCCC (configuration not stated) | > 100 µM (inactive) | 3.62 µM (inactive) | – | 55.1 µM (inactive) | > 100 µM (inactive) | > 100 µM (inactive) | – | > 100 µM (inactive) | 56 µM (inactive) | > 100 µM (inactive) | > 100 µM (inactive) | > 100 µM (inactive) | > 100 µM (inactive) | 72.1 µM (inactive) | > 100 µM (inactive) | > 100 µM (inactive) | 41.7 µM (inactive) | 95.9 µM (inactive) | 95.5 µM (inactive) | > 100 µM (inactive)
10 | CCC(C(C)N1CC(=O)NC(=O)C1)N1CC(=O)NC(=O)C1 (configuration not stated) | > 100 µM (inactive) | 4.93 µM (inactive) | 2.06 µM (inactive) | > 100 µM (inactive) | 9.77 µM (inactive) | 29 µM (inactive) | 0.141 µM (active) | > 100 µM (inactive) | > 25.1 µM (inactive) | > 100 µM (inactive) | 97.5 µM (inactive) | > 87.9 µM (inactive) | > 100 µM (inactive) | 12.5 µM (inactive) | 6.27 µM (inactive) | 17.4 µM (inactive) | > 100 µM (inactive) | > 37.5 µM (inactive) | > 61.4 µM (inactive) | 5.65 µM (inactive)
11 | NC(=O)OCC1=C(COC(N)=O)C(=O)c2c(O)ccc(O)c2C1=O | > 100 µM (inactive) | 44.7 µM (inactive) | 45.2 µM (inactive) | > 100 µM (inactive) | 61.9 µM (inactive) | > 100 µM (inactive) | – | > 100 µM (inactive) | > 100 µM (inactive) | > 100 µM (inactive) | > 100 µM (inactive) | > 100 µM (inactive) | > 100 µM (inactive) | 48 µM (inactive) | > 100 µM (inactive) | 61.1 µM (inactive) | 27.3 µM (inactive) | > 100 µM (inactive) | > 100 µM (inactive) | > 100 µM (inactive)
12 | Cc1cccc2c1Sc1ccccc1C2NC(=O)CN(C)C (configuration not stated) | – | > 100 µM (inactive) | 74.5 µM (inactive) | > 100 µM (inactive) | 81.1 µM (inactive) | > 100 µM (inactive) | > 100 µM (inactive) | > 100 µM (inactive) | > 100 µM (inactive) | > 100 µM (inactive) | 77.8 µM (inactive) | > 100 µM (inactive) | – | 36.1 µM (inactive) | 81.5 µM (inactive) | > 100 µM (inactive) | > 100 µM (inactive) | 33.6 µM (inactive) | 47.6 µM (inactive) | –
13 | COC(=O)C(C)(C)NC(=O)C(Cc1ccccc1)NC(=O)C(C)(C)NC(=O)OCc1ccccc1 (configuration not stated) (Cbz-[Aib]-[ξF]-[Aib]-OMe) | > 100 µM (inactive) | > 100 µM (inactive) | > 100 µM (inactive) | > 100 µM (inactive) | > 100 µM (inactive) | – | > 100 µM (inactive) | > 100 µM (inactive) | > 100 µM (inactive) | > 100 µM (inactive) | > 100 µM (inactive) | > 100 µM (inactive) | > 100 µM (inactive) | > 100 µM (inactive) | – | > 100 µM (inactive) | > 100 µM (inactive) | > 100 µM (inactive) | > 100 µM (inactive) | > 100 µM (inactive)
14 | C[N+](C)(N)c1nc(N)c(C#N)c(C#N)c1C#N | > 10 µM (inactive) | > 10 µM (inactive) | > 10 µM (inactive) | > 10 µM (inactive) | 7.01 µM (inactive) | > 10 µM (inactive) | > 10 µM (inactive) | > 10 µM (inactive) | > 10 µM (inactive) | > 10 µM (inactive) | > 10 µM (inactive) | > 10 µM (inactive) | > 10 µM (inactive) | > 10 µM (inactive) | > 10 µM (inactive) | > 10 µM (inactive) | > 10 µM (inactive) | > 10 µM (inactive) | > 10 µM (inactive) | > 10 µM (inactive)
15 | COc1ccc(NC2=NCCO2)c2ccccc12 | > 10 µM (inactive) | > 10 µM (inactive) | > 10 µM (inactive) | > 10 µM (inactive) | > 10 µM (inactive) | – | > 10 µM (inactive) | > 10 µM (inactive) | > 10 µM (inactive) | > 10 µM (inactive) | > 10 µM (inactive) | > 10 µM (inactive) | > 10 µM (inactive) | > 10 µM (inactive) | > 10 µM (inactive) | > 10 µM (inactive) | > 10 µM (inactive) | > 10 µM (inactive) | > 10 µM (inactive) | > 10 µM (inactive)
